Results: article PMC6207618, “The GbsR Family of Transcriptional Regulators: Functional Characterization of the OpuAR Repressor” (Frontiers in Microbiology, 2018)
“Also recorded” adds a separate entry of the source.

Tested on: opuAA-treA reporter activity
Test: opuAA-treA reporter fusion TreA enzyme activity assay
Assay type: cell-based, Bacillus subtilis
Conditions: strain STHB10 (OpuAR+), SMM with 1.2 M NaCl, 1 mM compatible solute
Text: opuAAB.infantis′-treA reporter gene fusions were constructed using primers opuAR treA Frag1/2 rev and either opuAR treA Frag1/4 for (Supplementary Table S2) to amplify a 1940-bp DNA fragment from chromosomal DNA of B. infantis NRRL B-14911, including the predicted opuA promoter region and the coding region of opuAR, or primer opuAR treA Frag2 for, to generate a fragment lacking the opuAR gene. PCR products, which had been cut with BamHI and SmaI, were cloned into the vector pJMB1 ([Hoffmann et al., 2013]). This vector carries a promoterless treA gene, whose gene product [phospho-α-(1,1)-glucosidase] can be assayed and photometrically quantitated with the chromogenic substrate α-PNPG ([Gotsche and Dahl, 1995]). The plasmids resulting for the construction of the treA transcriptional reporter gene fusions were named pSTH33 (opuAR^+/opuAAB.i-treA) and pSTH34 (opuAR^-/opuAAB.i-treA) (Supplementary Table S3). All treA reporter gene fusions were stably integrated as a single copy into the chromosome of various B. subtilis strains at the amyE gene; all of these strains carry a gene disruption mutation of the native chromosomal treA gene of B. subtilis to allow the assignment of the measured TreA enzyme activity to the reporter gene constructs (Supplementary Table S1).
Aliquots (1.5 ml) from cultures of B. subtilis strains carrying chromosomal opuAAB.i′-treA reporter operon gene fusions (Supplementary Table S1) were used to monitor the expression levels by assaying the TreA reporter enzyme activity as described previously using the chromogenic substrate α-PNPG ([Gotsche and Dahl, 1995]). The TreA-specific activity is expressed in units per milligram of protein. Protein concentrations were estimated from the optical density of the cell culture harboring the treA reporter operon gene fusion ([Miller, 1972]).
FIGURE 6 Influence of the B. subtilis GbsR-like regulators on the expression of opuA from B. infantis and its transcriptional response to the presence of compatible solutes. (A) Genetic structure of the opuAA-treA transcriptional reporter fusions. (B) The opuAA-treA reporter gene fusions, either including or lacking the B. infantis opuAR gene, were integrated into the chromosome of the B. subtilis strain STHB05; it carries gene disruption mutations of all three GbsR-like regulators, resulting in strains STHB10 (OpuAR^+) and STHB11 (OpuAR^-). […] The opuAA-treA reporter strains were grown in SMM to early exponential growth phase (OD578 1–1.5) and then assayed for TreA reporter enzyme activity. The shown data represent four independent biological replicates and each culture was assayed twice. (C) Strain STHB10 (opuAR^+/opuAA-treA) was grown in SMM with increasing NaCl concentrations until each of these cultures reached mid-exponential growth phase (OD578 of about 1.5) and were then harvested for TreA reporter enzyme activity assays. The given data are the means and standard deviations of four independent biological replicates and each culture was assayed twice. (D) Expression of the opuAA-treA reporter gene construct in response to extracellular provided compatible solutes. The opuAA-treA reporter fusion strains STHB10 (OpuAR^+) and STHB11 (OpuAR^-) were cultivated in SMM containing 1.2 M NaCl either in the absence or presence of 1 mM of the indicated compatible solutes. The opuAA-treA reporter fusion strains were grown to early exponential growth phase (OD578 1–1.5) and then assayed for TreA reporter enzyme activity. The given data are the means and standard deviations of four independent biological replicates and each culture was assayed twice.
To identify possible effector molecules for the B. infantis OpuAR protein, we conducted a series of in vivo experiments in which we assessed any possible inducing effects of compatible solutes on opuAA-treA transcriptional activity in an OpuAR-dependent fashion (Figure 6D).

Row | SMILES | Induction of opuAA-treA reporter activity (OpuAR-dependent)
1 | CN(C)CC(=O)O [DMG, dimethlyglycine] | did not serve as inducers
2 | C[S+](C)CCC(=O)[O-] [DMSP, dimethylsulfoniopropionate] | did not serve as inducers
3 | C[N+](C)(C)CCO [choline] | served as inducers; also recorded: induced
4 | C[N+](C)(C)CC(=O)[O-] [glycine betaine] | served as inducers; also recorded: induced
5 | C[N+](C)(C)CCC(=O)[O-] [homobetaine] | did not serve as inducers
6 | C[N+]1(C)CCC[C@H]1C(=O)[O-] [proline betaine] | served as inducers; also recorded: induced
